Read-outs that look alike come from different tables or passages of the source.
Tests used:
[1] = logP (HPLC); assay type: physicochemical
[2] = test system: Phytophthora infestans; assay type: in vivo; conditions: 3 days after the inoculation, tomato, protective
[3] = test system: beet army-worm (Spodoptera frugiperda); test: Spodoptera test; assay type: in vivo; conditions: 216 h, active compound concentration of 0.05%, after 9 days, larvae L2-L3 on synthetic feed, read-out: kill
Method: 100 parts by weight of acetone
1900 parts by weight of methanol
A stated amount of the preparation of active compound of the desired concentration is pipetted onto a standardized amount of synthetic feed. In 3 replications, one larva (L2 -L3) each of the beet army-worm (Spodoptera frugiperda) is placed on the feed.
After the desired period of time, the kill in % is determined.

[4] = test system: Plasmopara viticola; test: Plasmopara-Test (Grapevines)/protective; assay type: in vivo; conditions: application rate of 50 g/ha, 6 days after the inoculation, protective
[5] = test system: greenhouse red spider mite (Tetranychus urticae); test: Tetranychus-Test (OP-resistant/dip treatment); conditions: 168 h, read-out: kill
Method: 7.5 parts by weight of dimethylformamide
100 parts by weight of methanol
Emulsifier: 2.5 parts by weight of alkylaryl polyglycol ether
After the desired period of time, the activity in % is determined. 100% means that all spider mites have been killed; 0% means that none of the spider mites have been killed.

[6] = first of two values printed (x/y)

What does the source list for `CCc1ccc(C(=NOC(C)=O)C(=O)NCCc2ccc(OC)c(OC)c2)cc1` [Example I-16]?
chromatographic logP [1, 6]: 2.42; chromatographic logP ([1]; second of two values): 2.6

For `CCON=C(C(=O)NCCc1ccc(OC)c(OC)c1)c1ccc2c(c1)CCc1ccccc1C2` [IV-3], which “efficacy compared to the untreated control” value ([2]; application rate of 50 g/ha) is on record?
Its value is 96%.

And the chromatographic logP [1, 6]?
The chromatographic logP was 3.91.

What about the chromatographic logP ([1]; second of two values) of the same molecule?
Its chromatographic logP is 4.2.

Which chromatographic logP [1, 6] does the source give for `CCON=C(C(=S)NCCc1ccc(OC)c(OC)c1)c1ccc2c(c1)CCC2` [II-10] here?
The chromatographic logP was 3.87.

And the chromatographic logP ([1]; second of two values)?
The chromatographic logP was 4.13.

For `COC(=O)ON=C(C(=O)NCCc1ccc(OC)c(OC)c1)c1ccc2c(c1)CCC2` [Example I-11], which chromatographic logP [1, 6] is on record?
The chromatographic logP was 2.78.

And the chromatographic logP ([1]; second of two values)?
The chromatographic logP was 2.97.

For `CCOC(=O)ON=C(C(=O)NCCc1ccc(OC)c(OC)c1)c1ccc2c(c1)CCCC2` [Example I-3], which chromatographic logP [1, 6] is on record?
The chromatographic logP was 3.19.

What about the chromatographic logP ([1]; second of two values) of the same molecule?
The chromatographic logP was 3.55.

Which chromatographic logP [1, 6] does the source give for `CON=C(C(=O)NCCc1ccc(OC)c(OC)c1)c1ccc2c(c1)OCC2` [III-2] here?
The chromatographic logP was 2.24.

And the chromatographic logP ([1]; second of two values)?
Its chromatographic logP is 2.46.

With `CCc1ccc(C(=NOC)C(=S)NCCc2ccc(OC)c(OC)c2)cc1` [II-4] as the molecule, how does the mortality at 0.05 % [3] read?
Its mortality at 0.05 % is 100%.

And the chromatographic logP [1, 6]?
The chromatographic logP was 3.5.

What about the chromatographic logP ([1]; second of two values) of the same molecule?
The chromatographic logP was 3.77.

With `COc1ccc(CCNC(=O)C(=NOC(=O)OC(C)C)c2ccc3c(c2)CCCC3)cc1OC` [Example I-4] as the molecule, how does the chromatographic logP [1, 6] read?
The chromatographic logP was 3.55.

And the chromatographic logP ([1]; second of two values)?
Its chromatographic logP is 3.84.

With `CCON=C(C(=S)NCCc1ccc(OC)c(OC)c1)c1ccc(Br)cc1` [II-5] as the molecule, how does the chromatographic logP [1, 6] read?
The chromatographic logP was 3.82.

What about the chromatographic logP ([1]; second of two values) of the same molecule?
The chromatographic logP was 4.14.

Which results are given for `COc1ccc(CCNC(=O)C(=NOC(=O)c2ccccc2)c2ccc3c(c2)CCCC3)cc1OC` [Example I-7]?
chromatographic logP [1, 6]: 3.69; chromatographic logP ([1]; second of two values): 4.1

What does the source list for `CON=C(C(=S)NCCc1ccc(OC)c(OC)c1)c1ccc(Br)cc1` [II-6]?
efficacy compared to the untreated control [4]: 89%; chromatographic logP [1, 6]: 3.5; chromatographic logP ([1]; second of two values): 3.8

For `CCON=C(C(=O)NCCc1ccc(OC)c(OC)c1)c1ccc2c(c1)OCC2` [Example III-1, N-[2-(3,4dimethoxyphenyl)-ethyl]-2-(2,3-dihydrobenzofuran-6-yl)2-ethoximino-acetamide], which “efficacy compared to the untreated control” value ([2]; application rate of 500 g/ha) is on record?
Its value is 95%.

For `CCOC(=O)ON=C(C(=O)NCCc1ccc(OC)c(OC)c1)c1ccc(CC)cc1` [Example I-15], which chromatographic logP ([1]; single value given) is on record?
The chromatographic logP was 2.98.

With `CON=C(C(=O)NCCc1ccc(OC)c(OC)c1)c1ccc2c(c1)CCc1ccccc1C2` [IV-2] as the molecule, how does the “efficacy compared to the untreated control” value ([2]; application rate of 50 g/ha) read?
The value was 96%.

And the chromatographic logP [1, 6]?
Its chromatographic logP is 3.61.

And the chromatographic logP ([1]; second of two values)?
Its chromatographic logP is 3.87.

Which chromatographic logP [1, 6] does the source give for `CON=C(C(=S)NCCc1ccc(OC)c(OC)c1)c1ccc(C)cc1` [II-3] here?
Its chromatographic logP is 3.15.

What about the chromatographic logP ([1]; second of two values) of the same molecule?
Its chromatographic logP is 3.41.

For `CCON=C(C(=S)NCCc1ccc(OC)c(OC)c1)c1ccc(Cl)cc1` [Example II-1, N-[2-(3,4-dimethoxyphenyl)-ethyl]-2-ethoximino-2-(4-chlorophenyl)-thioacetamide], which chromatographic logP ([1]; e isomer) is on record?
The chromatographic logP was 3.73.

What about the chromatographic logP ([1]; z isomer) of the same molecule?
The chromatographic logP was 4.03.

For `CCOC(=O)ON=C(C(=O)NCCc1ccc(OC)c(OC)c1)c1ccc(Br)cc1` [Example I-10], which chromatographic logP ([1]; single value given) is on record?
The chromatographic logP was 3.19.

Which chromatographic logP [1, 6] does the source give for `CCON=C(C(=S)NCCc1ccc(OC)c(OC)c1)c1ccc2c(c1)CCCC2` [II-2] here?
The chromatographic logP was 4.13.

What about the chromatographic logP ([1]; second of two values) of the same molecule?
The chromatographic logP was 4.41.

With `CCc1ccc(C(=NOC(=O)OC)C(=O)NCCc2ccc(OC)c(OC)c2)cc1` [Example I-14] as the molecule, how does the mortality at 0.05 % [5] read?
The mortality at 0.05 % was 100%.

And the chromatographic logP [1, 6]?
Its chromatographic logP is 2.73.

What about the chromatographic logP ([1]; second of two values) of the same molecule?
Its chromatographic logP is 2.94.

Which chromatographic logP [1, 6] does the source give for `COc1ccc(CCNC(=O)C(=NOC(C)=O)c2ccc3c(c2)CCC3)cc1OC` [Example I-12] here?
The chromatographic logP was 2.65.

And the chromatographic logP ([1]; second of two values)?
Its chromatographic logP is 2.87.

Which chromatographic logP ([1]; e isomer) does the source give for `CCON=C(C(=O)NCCc1ccc(OC)c(OC)c1)c1ccc2c(c1)Cc1ccccc1C2` [Example IV-1] here?
The chromatographic logP was 3.62.

And the chromatographic logP ([1]; z isomer)?
Its chromatographic logP is 4.

Which “efficacy compared to the untreated control” value ([2]; application rate of 50 g/ha) does the source give for `COc1ccc(CCNC(=O)C(=NOC(C)=O)c2ccc3c(c2)CCCC3)cc1OC` [Example I-1, N-[(3,4-dimethoxyphenyl)-2-ethyl]-2-acetoxyimino-2-(2-tetrahydronaphthyl)-acetamide] here?
The value was 95%.

With `CCON=C(C(=S)NCCc1ccc(OC)c(OC)c1)c1cccc(CC)c1` [II-8] as the molecule, how does the chromatographic logP [1, 6] read?
The chromatographic logP was 3.82.

And the chromatographic logP ([1]; second of two values)?
Its chromatographic logP is 4.09.

Which results are given for `CCOC(=O)ON=C(C(=O)NCCc1ccc(OC)c(OC)c1)c1ccc2c(c1)CCC2` [Example I-13]?
chromatographic logP [1, 6]: 3.04; chromatographic logP ([1]; second of two values): 3.27

Which chromatographic logP [1, 6] does the source give for `COc1ccc(CCNC(=O)C(=NOC(=O)OC2CCCCC2)c2ccc3c(c2)CCCC3)cc1OC` [Example I-6] here?
The chromatographic logP was 4.2.

And the chromatographic logP ([1]; second of two values)?
Its chromatographic logP is 4.62.

Which results are given for `COc1ccc(CCNC(=O)C(=NOC(=O)Oc2ccccc2)c2ccc3c(c2)CCCC3)cc1OC` [Example I-5]?
chromatographic logP [1, 6]: 3.82; chromatographic logP ([1]; second of two values): 4.09

With `CCON=C(C(=O)NCCc1ccc(OC)c(OC)c1)c1ccc(Cl)cc1` [Example II-II-1] as the molecule, how does the chromatographic logP ([1]; e isomer) read?
Its chromatographic logP is 3.07.

And the chromatographic logP ([1]; z isomer)?
The chromatographic logP was 3.34.

Which chromatographic logP [1, 6] does the source give for `CON=C(C(=O)NCCc1ccc(OC)c(OC)c1)c1ccc2c(c1)Cc1ccccc1C2` [IV-4] here?
Its chromatographic logP is 3.31.

And the chromatographic logP ([1]; second of two values)?
Its chromatographic logP is 3.68.
